Test results taken from PubChem BioAssay (NCI).
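In this assay, cells in 96-well plates receive the compound at five concentrations for 48 hours. Endpoints are linearly interpolated between the surrounding concentrations. TGI marks complete inhibition of growth.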

Columns and labels:
Assay in all cases: NCI-60 cell line screen, 48 h
NCI-H522 lung = system: NCI-H522 lung
U251 CNS = system: U251 CNS
SK-OV-3 ovarian = system: SK-OV-3 ovarian
TK-10 renal = system: TK-10 renal
SNB-78 CNS = system: SNB-78 CNS
HOP-92 NSCLC = system: HOP-92 NSCLC
SNB-19 CNS = system: SNB-19 CNS
ACHN renal = system: ACHN renal
UACC-257 melanoma = system: UACC-257 melanoma
HCT-116 colon = system: HCT-116 colon
DMS 114 small cell lung = system: DMS 114 small cell lung
UACC-62 melanoma = system: UACC-62 melanoma
SR leukemia = system: SR leukemia
M19-MEL melanoma = system: M19-MEL melanoma
SF-539 CNS = system: SF-539 CNS
SK-MEL-28 melanoma = system: SK-MEL-28 melanoma
SK-MEL-2 melanoma = system: SK-MEL-2 melanoma
SN12C renal = system: SN12C renal
RPMI-8226 leukemia = system: RPMI-8226 leukemia
HT29 colon = system: HT29 colon
DMS 273 small cell lung = system: DMS 273 small cell lung
K-562 leukemia = system: K-562 leukemia
MOLT-4 leukemia = system: MOLT-4 leukemia
LXFL 529 NSCLC = system: LXFL 529 NSCLC
SF-295 CNS = system: SF-295 CNS
HCC-2998 colon = system: HCC-2998 colon
OVCAR-8 ovarian = system: OVCAR-8 ovarian
UO-31 renal = system: UO-31 renal
A549 NSCLC = system: A549 NSCLC
CAKI-1 renal = system: CAKI-1 renal
DLD-1 colon = system: DLD-1 colon
786-0 renal = system: 786-0 renal
NCI-H23 lung = system: NCI-H23 lung
CCRF-CEM leukemia = system: CCRF-CEM leukemia
MALME-3M melanoma = system: MALME-3M melanoma
SK-MEL-5 melanoma = system: SK-MEL-5 melanoma
COLO 205 colon = system: COLO 205 colon
RXF 393 renal = system: RXF 393 renal
EKVX NSCLC = system: EKVX NSCLC
SW-620 colon = system: SW-620 colon
SNB-75 CNS = system: SNB-75 CNS
OVCAR-3 ovarian = system: OVCAR-3 ovarian
IGROV1 ovarian = system: IGROV1 ovarian
SF-268 CNS = system: SF-268 CNS
KM12 colon = system: KM12 colon
NCI-H226 lung = system: NCI-H226 lung
OVCAR-5 ovarian = system: OVCAR-5 ovarian
HL-60(TB) leukemia = system: HL-60(TB) leukemia
A498 renal = system: A498 renal
OVCAR-4 ovarian = system: OVCAR-4 ovarian
HOP-18 NSCLC = system: HOP-18 NSCLC
HOP-62 NSCLC = system: HOP-62 NSCLC
HCT-15 colon = system: HCT-15 colon
LOX IMVI melanoma = system: LOX IMVI melanoma
M14 melanoma = system: M14 melanoma
NCI-H460 lung = system: NCI-H460 lung
XF 498 CNS = system: XF 498 CNS
KM20L2 colon = system: KM20L2 colon

FC(F)(F)c1cccc(C2SCc3nc4ccccc4n32)c1 (stereo not given)
TGI (NCI-H522 lung): > 100 µM
TGI (U251 CNS): > 100 µM
TGI (SK-OV-3 ovarian): 89.1 µM
TGI (TK-10 renal): > 100 µM
TGI (SNB-78 CNS): > 100 µM
TGI (HOP-92 NSCLC): 32.2 µM
TGI (SNB-19 CNS): > 100 µM
TGI (ACHN renal): > 100 µM
TGI (UACC-257 melanoma): > 100 µM
TGI (HCT-116 colon): > 100 µM
TGI (DMS 114 small cell lung): > 100 µM
TGI (UACC-62 melanoma): > 100 µM
TGI (SR leukemia): > 100 µM
TGI (M19-MEL melanoma): > 100 µM
TGI (SF-539 CNS): > 100 µM
TGI (SK-MEL-28 melanoma): > 100 µM
TGI (SK-MEL-2 melanoma): > 100 µM
TGI (SN12C renal): > 100 µM
TGI (RPMI-8226 leukemia): > 100 µM
TGI (HT29 colon): > 100 µM
TGI (DMS 273 small cell lung): > 100 µM
TGI (K-562 leukemia): > 100 µM
TGI (MOLT-4 leukemia): > 100 µM
TGI (LXFL 529 NSCLC): > 100 µM
TGI (SF-295 CNS): > 100 µM
TGI (HCC-2998 colon): > 100 µM
TGI (OVCAR-8 ovarian): > 100 µM
TGI (UO-31 renal): > 100 µM
TGI (A549 NSCLC): > 100 µM
TGI (CAKI-1 renal): > 100 µM
TGI (DLD-1 colon): > 100 µM
TGI (786-0 renal): > 100 µM
TGI (NCI-H23 lung): > 100 µM
TGI (CCRF-CEM leukemia): > 100 µM
TGI (MALME-3M melanoma): > 100 µM
TGI (SK-MEL-5 melanoma): > 100 µM
TGI (COLO 205 colon): > 100 µM
TGI (RXF 393 renal): > 100 µM
TGI (EKVX NSCLC): > 100 µM
TGI (SW-620 colon): > 100 µM
TGI (SNB-75 CNS): > 100 µM
TGI (OVCAR-3 ovarian): > 100 µM
TGI (IGROV1 ovarian): > 100 µM
TGI (SF-268 CNS): > 100 µM
TGI (KM12 colon): > 100 µM
TGI (NCI-H226 lung): > 100 µM
TGI (OVCAR-5 ovarian): > 100 µM
TGI (HL-60(TB) leukemia): > 100 µM

COc1ccc(C2S/C(=C\c3ccccc3)C(=O)N2NC(=O)Cc2ccccc2)cc1 (stereo not given)
TGI (NCI-H522 lung): > 100 µM
TGI (U251 CNS): > 100 µM
TGI (SK-OV-3 ovarian): > 100 µM
TGI (A498 renal): > 100 µM
TGI (OVCAR-4 ovarian): > 100 µM
TGI (TK-10 renal): > 100 µM
TGI (HOP-18 NSCLC): > 100 µM
TGI (HOP-92 NSCLC): > 100 µM
TGI (HOP-62 NSCLC): > 100 µM
TGI (ACHN renal): > 100 µM
TGI (UACC-257 melanoma): > 100 µM
TGI (HCT-116 colon): > 100 µM
TGI (UACC-62 melanoma): > 100 µM
TGI (SR leukemia): > 100 µM
TGI (M19-MEL melanoma): > 100 µM
TGI (SF-539 CNS): > 100 µM
TGI (HCT-15 colon): > 100 µM
TGI (SK-MEL-28 melanoma): > 100 µM
TGI (SK-MEL-2 melanoma): > 100 µM
TGI (SN12C renal): > 100 µM
TGI (RPMI-8226 leukemia): > 100 µM
TGI (HT29 colon): > 100 µM
TGI (DMS 273 small cell lung): > 100 µM
TGI (K-562 leukemia): > 100 µM
TGI (MOLT-4 leukemia): > 100 µM
TGI (LXFL 529 NSCLC): > 100 µM
TGI (SF-295 CNS): > 100 µM
TGI (OVCAR-8 ovarian): > 100 µM
TGI (UO-31 renal): > 100 µM
TGI (A549 NSCLC): > 100 µM
TGI (CAKI-1 renal): > 100 µM
TGI (DLD-1 colon): > 100 µM
TGI (786-0 renal): > 100 µM
TGI (NCI-H23 lung): > 100 µM
TGI (CCRF-CEM leukemia): > 100 µM
TGI (LOX IMVI melanoma): > 100 µM
TGI (MALME-3M melanoma): > 100 µM
TGI (SK-MEL-5 melanoma): > 100 µM
TGI (M14 melanoma): > 100 µM
TGI (COLO 205 colon): > 100 µM
TGI (NCI-H460 lung): > 100 µM
TGI (RXF 393 renal): > 100 µM
TGI (SW-620 colon): > 100 µM
TGI (SNB-75 CNS): > 100 µM
TGI (IGROV1 ovarian): > 100 µM
TGI (SF-268 CNS): > 100 µM
TGI (KM12 colon): > 100 µM
TGI (NCI-H226 lung): > 100 µM
TGI (OVCAR-5 ovarian): > 100 µM
TGI (HL-60(TB) leukemia): > 100 µM

O=NN(CCCl)C(=O)N[C@H]1CCCC[C@@H]1Cl
TGI (XF 498 CNS): > 100 µM
TGI (NCI-H522 lung): > 100 µM
TGI (U251 CNS): > 100 µM
TGI (SK-OV-3 ovarian): > 100 µM
TGI (A498 renal): > 100 µM
TGI (OVCAR-4 ovarian): > 100 µM
TGI (TK-10 renal): > 100 µM
TGI (HOP-18 NSCLC): > 100 µM
TGI (HOP-92 NSCLC): > 100 µM
TGI (SNB-19 CNS): > 100 µM
TGI (ACHN renal): > 100 µM
TGI (HCT-116 colon): > 100 µM
TGI (DMS 114 small cell lung): > 100 µM
TGI (SR leukemia): 17 µM
TGI (M19-MEL melanoma): > 100 µM
TGI (SF-539 CNS): > 100 µM
TGI (HCT-15 colon): > 100 µM
TGI (SK-MEL-28 melanoma): > 100 µM
TGI (SK-MEL-2 melanoma): > 100 µM
TGI (SN12C renal): > 100 µM
TGI (RPMI-8226 leukemia): > 100 µM
TGI (HT29 colon): > 100 µM
TGI (DMS 273 small cell lung): > 100 µM
TGI (K-562 leukemia): > 100 µM
TGI (MOLT-4 leukemia): > 100 µM
TGI (LXFL 529 NSCLC): > 100 µM
TGI (SF-295 CNS): > 100 µM
TGI (HCC-2998 colon): > 100 µM
TGI (OVCAR-8 ovarian): > 100 µM
TGI (UO-31 renal): > 100 µM
TGI (A549 NSCLC): > 100 µM
TGI (CAKI-1 renal): > 100 µM
TGI (DLD-1 colon): > 100 µM
TGI (786-0 renal): > 100 µM
TGI (NCI-H23 lung): > 100 µM
TGI (CCRF-CEM leukemia): 43.7 µM
TGI (KM20L2 colon): > 100 µM
TGI (MALME-3M melanoma): > 100 µM
TGI (SK-MEL-5 melanoma): > 100 µM
TGI (M14 melanoma): > 100 µM
TGI (COLO 205 colon): > 100 µM
TGI (NCI-H460 lung): > 100 µM
TGI (RXF 393 renal): > 100 µM
TGI (EKVX NSCLC): > 100 µM
TGI (SW-620 colon): > 100 µM
TGI (SNB-75 CNS): > 100 µM
TGI (OVCAR-3 ovarian): > 100 µM
TGI (IGROV1 ovarian): > 100 µM
TGI (SF-268 CNS): > 100 µM
TGI (KM12 colon): > 100 µM
TGI (NCI-H226 lung): > 100 µM
TGI (HL-60(TB) leukemia): 42.7 µM

COc1cc(Nc2nc3cc(C(F)(F)F)ccc3nc2C)cc(OC)c1OC
TGI (XF 498 CNS): 8.77 µM
TGI (NCI-H522 lung): 25 µM
TGI (U251 CNS): 22.4 µM
TGI (SK-OV-3 ovarian): 30.5 µM
TGI (A498 renal): 18.8 µM
TGI (OVCAR-4 ovarian): 34 µM
TGI (TK-10 renal): 23.3 µM
TGI (SNB-78 CNS): 25.9 µM
TGI (HOP-92 NSCLC): 0.95 µM
TGI (HOP-62 NSCLC): 30.6 µM
TGI (ACHN renal): 20.8 µM
TGI (UACC-257 melanoma): 21.4 µM
TGI (HCT-116 colon): 21.1 µM
TGI (DMS 114 small cell lung): 23.8 µM
TGI (UACC-62 melanoma): 13.3 µM
TGI (SR leukemia): 30.3 µM
TGI (SF-539 CNS): 25.4 µM
TGI (HCT-15 colon): 12.2 µM
TGI (SK-MEL-28 melanoma): 25.3 µM
TGI (SK-MEL-2 melanoma): 23.6 µM
TGI (SN12C renal): 23 µM
TGI (HT29 colon): 13 µM
TGI (DMS 273 small cell lung): 30 µM
TGI (K-562 leukemia): 20.1 µM
TGI (MOLT-4 leukemia): 31 µM
TGI (LXFL 529 NSCLC): 21.7 µM
TGI (SF-295 CNS): 4.91 µM
TGI (HCC-2998 colon): 12.6 µM
TGI (OVCAR-8 ovarian): 24.5 µM
TGI (UO-31 renal): 12.6 µM
TGI (CAKI-1 renal): 20.8 µM
TGI (786-0 renal): 24.8 µM
TGI (NCI-H23 lung): 23.2 µM
TGI (CCRF-CEM leukemia): 24.3 µM
TGI (LOX IMVI melanoma): 10.9 µM
TGI (MALME-3M melanoma): 26.6 µM
TGI (SK-MEL-5 melanoma): 25.2 µM
TGI (M14 melanoma): 21.3 µM
TGI (COLO 205 colon): 25.3 µM
TGI (NCI-H460 lung): 17.7 µM
TGI (RXF 393 renal): 17.9 µM
TGI (EKVX NSCLC): 30.6 µM
TGI (SW-620 colon): 26.6 µM
TGI (SNB-75 CNS): 39 µM
TGI (OVCAR-3 ovarian): 30.9 µM
TGI (IGROV1 ovarian): 32 µM
TGI (SF-268 CNS): 33.5 µM
TGI (KM12 colon): 21.5 µM
TGI (NCI-H226 lung): 22.8 µM
TGI (OVCAR-5 ovarian): 26.7 µM
